In US8501242B2, “Methods and compositions for treating neoplasia” (University of Florida Research Foundation, priority 2009, dated 2013):

Experiments:
[1] = biological target: human thymidylate synthase (Homo sapiens, UniProt P04818); assay: spectrophotometric assay of human thymidylate synthase activity; format: biochemical; conditions: for Ki: Table 2, kinetic parameters of TS in presence of selected compounds
Method: A spectrophotometric assay is used to test compounds for their inhibitory activity against human thymidylate synthase activity. This assay is a modification of the assay of Wahba, A. J., and Friedkin, M. (1961). Direct spectrophotometric evidence for the oxidation of tetrahydrofolate during the enzymatic synthesis of thymidylate (J. Biol. Chem. 236, PC11-12).
In the spectrophotometric assay, human thymidylate synthase is preincubated with deoxyuridine monophosphate (and inhibitors) in 96-well plates for 0-5 minutes at room temperature and fresh 5,10-methylene tetrahydrofolate (THF) is added to the mixture immediately before the reaction to yield a volume of 100 μl. 5,10-methylene tetrahydrofolate is prepared fresh prior to every experiment by dissolving THF in 0.26 M formaldehyde, 80 mM dithiothreitol, and 50 mM Tris HCI (pH 6.8/7.0). X-ray crystallography is then utilized to identify any binding site in human thymidylate synthase for an inhibitor and also to characterize its mechanism of action.
The 40 highest scoring compounds in the above-mentioned screening assay were obtained and tested for their abilities to inhibit the biochemical activity of human thymidylate synthase. Four compounds were inhibitory and preliminary studies show the enzyme mechanism to be non-competitive (i.e. through modulating or interfering with association among human thymidylate synthase monomers).

HT29 = assay: cell proliferation experiments, combination with 5-FU; format: cell-based, human; conditions: combination of CNX treatment with 5-FU versus 5FU alone
Source text: (§1) The combination of certain compounds (e.g., CNX) with certain anti-cancer compounds (e.g., 5-FU) can produce synergistic anticancer effects.

HeLa = assay: as above; format: cell-based, human; conditions: combination of CNX treatment with 5-FU versus 5FU alone
Source text: as §1

Sequence of human thymidylate synthase (P04818 whole entry): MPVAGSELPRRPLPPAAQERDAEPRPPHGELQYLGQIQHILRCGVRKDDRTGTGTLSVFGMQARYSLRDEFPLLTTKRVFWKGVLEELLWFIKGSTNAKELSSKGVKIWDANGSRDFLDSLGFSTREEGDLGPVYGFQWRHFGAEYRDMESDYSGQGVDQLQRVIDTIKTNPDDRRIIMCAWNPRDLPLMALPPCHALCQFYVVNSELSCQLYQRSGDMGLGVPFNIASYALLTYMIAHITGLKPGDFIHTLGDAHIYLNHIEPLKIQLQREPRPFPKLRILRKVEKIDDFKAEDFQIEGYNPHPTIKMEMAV

| SMILES | Ki [1] [µM] | further results |
| --- | --- | --- |
| O=c1[nH]cc(F)c(=O)[nH]1 [5-FU, 5-fluorouracil, reference compound] | 56.7 | – |
| O=P(O)(O)OCC(O)CO (stereo not drawn) [NSC9231, 2,3-Dihydroxypropyl dihydrogen phosphate] | 2.12 | – |
| O=C(O)C(S)C(S)C(=O)O (stereo not drawn) [NSC16867, 2,3-Dimercaptosuccinic acid] | 45.5 | – |
| CCN(CC)S(=O)(=O)c1ccc(C(=O)O)cc1 [NSC49467, P-(Diethylsulfamoyl)benzoic acid] | 177 | – |
| CCn1nc(C(=O)O)c(=O)c2cc3c(cc21)OCO3 [NSC304467, 1-Ethyl-4-oxo-1,4-dihydro[1,3]dioxolo[4,5-g]cinnoline-3-carboxylic acid] | 0.32 | inhibitory effect on cell proliferation (HT29): greater inhibitory effects than 5FU alone; inhibitory effect on cell proliferation (HeLa): greater inhibitory effects than 5FU alone; enzyme mechanism of TS inhibition [1]: non-competitive; inhibiting TS activity (in words) [1]: potent |

The remaining compounds from weak to strong by Ki [1], led by results:

| Ki [1] [µM] | SMILES | further results |
| --- | --- | --- |
| 602 | CC(=O)NC(CS)C(=O)O (stereo not drawn) [NSC111180, 2-acetamido-3-sulfanylpropanoic acid] | – |
| 29.8 | O=C(O)Cn1cc(I)c(=O)c(I)c1 [NSC60718, (3,5-diiodo-4-oxo-1(4H)-pyridinyl)acetic acid] | – |
| 5.4 | CC(=O)Nc1c(I)cc(I)c(C(=O)O)c1I [NSC141235, 3-(acetylamino)-2,4,6-triiodobenzoic acid.6-(methylamino)hexane-1,2,3,4,5-pentol] | – |
